The values that follow come from patent publication US11066389B2, “Process for the manufacturing of medicaments” (Genentech, Inc., priority 2014, dated 2021).

Molecules are shown by their SMILES.

Common to all, as to format: physicochemical
A short description of series [1]: pKa determination of the free base (salt screen). How it is done: A salt screen was conducted to determine if a suitable salt form could be discovered. The pKa of the free base was determined to be less than 2, which limited the range of possible salt coformers. In addition, salts derived from (S)-1-(1-(4-chloro-3-fluorophenyl)-2-hydroxyethyl)-4-(2-((1-methyl-1H-pyrazol-5-yl)amino)pyrimidin-4-yl)pyridin-2(1H)-one free base would have a pHmax less than 2 and would be expected to disproportionate in water. Thus, it was not clear that a crystalline salt could be prepared or that any salt would have acceptable exposure in vivo (an aqueous environment). […] Eventually crystalline salts were obtained from 1,5-naphthalenedisulfonic acid, p-toluenesulfonic acid and benzenesulfonic acid.

Series [2] in a line: Hygroscopicity, automated vapor sorption (DVS). The settings on record: salt form; lower than the tosylate and 1,5-naphthalenedisulfonic acid salt forms; vapor sorption at 25° C., 5 to 95% RH. The procedure:
Automated vapor sorption data were collected on a TA Instruments Q5000SA vapor sorption analyzer. NaCl and PVP were used as calibration standards. Samples were not dried prior to analysis. Adsorption and desorption data were collected at 25° C. over a range from 5 to 95% RH at 10% RH increments under a nitrogen purge. Samples were held at the corresponding RH for 1 hour prior to moving to the next RH range. Data were not corrected for the initial moisture content of the samples.

Series [3] is described as follows: Solid-form stability against disproportionation in the presence of water. To be noted: compared to the tosylate and naphthalenesulfonic acid salt forms.

One may read the pKa as the negative logarithm of the acid dissociation constant. As for `Cn1nccc1Nc1nccc(-c2ccn([C@H](CO)c3ccc(Cl)c(F)c3)c(=O)c2)n1` [VIII, (S)-1-(1-(4-chloro-3-fluorophenyl)-2-hydroxyethyl)-4-(2-(1-methyl-1H-pyrazol-5-ylamino)pyrimidin-4-yl)pyridin-2(1H)-one], in series [1], the pKa was < 2 and the “pKa of the free base” value is given as “less than 1.8”.
On to `Cn1nccc1Nc1nccc(-c2ccn([C@H](CO)c3ccc(Cl)c(F)c3)c(=O)c2)n1.O=S(=O)(O)c1ccccc1` [besylate salt, (S)-1-(1-(4-Chloro-3-fluorophenyl)-2-hydroxyethyl)-4-(2-((1-methyl-1H-pyrazol-5-yl)amino)pyrimidin-4-yl)pyridin-2(1H)-one, Benzenesulfonate Salt], for which the hygroscopicity result in series [2] was “non-hygroscopicity”. Further, the stability result in series [3] is “enhanced stability”.
